Assay results from patent publication US10280447B2, “Substituted imidazo[1,2-A]pyrazines tethered to energy acceptors” (PROMEGA CORPORATION, priority 2016, dated 2019).

System: NanoLuc® enzyme and NanoLuc-Halotag fusion protein enzyme
Assay: Spectral profile of the coelenterazine analogue/luciferase reaction (Tecan-M1000, 3 nm increments)
Type: biochemical, Oplophorus gracilirostris
Conditions: NanoGlo® buffer
Description: FIGS. 2A-2D show the spectral profiles of varying concentrations of TAK-0043 and enzyme in NanoGlo® buffer. […] TAK-0043 was tested as a potential coelenterazine analogue capable of shifting the emission spectrum in a coelenterazine/luciferase reaction. A dilution series of purified NanoLuc® enzyme (Promega E499a) and NanoLuc-Halotag fusion protein enzyme was prepared in OptiMEM+0.1% FBS starting 2 μM. 50 ul of the 2 μM enzyme dilutions were combined with 50 μl of 2 μM and 20 μM TAK-0043 in NanoGlo® buffer in triplicate. These samples were immediately read on the Tecan-M1000 using 3 nm increments to obtain spectral profiles. Another spectral measurement was completed by combining 50 μl of 6.6 μM NanoLuc® enzyme and NanoLuc-Halotag fusion protein enzyme in OptiMEM+0.1% FBS with 50 μl of 2 μM TAK-0043 in NanoGlo® buffer in triplicate. This sample was also read on the Tecan M-1000 using […] increments.

peak for coelenterazine emission at 460 nm (TAK-0043 with NanoLuc® and NanoLuc-HaloTag fusion enzyme): nearly invisible
emitted photons shifted to NCT dye emission (all concentrations of TAK-0043 (1 or 10 uM) and enzyme (1 or 3.3 uM) used): > 95%
emission maximum (all concentrations of TAK-0043 and enzyme used): 618 nm
SMILES: O=C(NCCCCCCOc1cccc(Cc2nc3c(Cc4ccccc4)[nH]c(-c4ccccc4)cn-3c2=O)c1)c1ccc(C(=O)O)c(C2=c3cc4c5c(c3Oc3c2cc2c6c3CCCN6CCCC2)CCC[N+]=5CCCC4)c1 [TAK-0043]
